Source: patent US7060733B2, “Methods for treating pancreatitis with curcumin compounds and inhibitors of reactive oxygen species” (The Regents of the University of California, priority 2002, dated 2006)
Entries after “also recorded” stand apart in the source; their conditions may differ.

Legend:
[1] = tested on: rats with cerulein pancreatitis or ethanol/CCK pancreatitis; test: Serum amylase and lipase in cerulein and ethanol/CCK pancreatitis models; format: in vivo; conditions: rat; for inhibition of the increase in serum amylase and lipase: curcumin 35 mg/kg/h i.v. for 6 h
Procedure: 5 μg/kg/h of Cerulein (American Peptide Co., Sunnyvale, Calif.) or vehicle control was administered to male Sprague-Dawley rats (275-350 g; Harlan, Madison, Wis.) by continuous 6-hour intravenous infusion by conventional methods known in the art. See Gukovskaya A S, et al. (1997) J. Clin. Invest. 100:1853-1862; Gukovsky I, et al. (1998) Am. J. Physiol. 275:[…]-[…]; and Zaninovic V, et al. (2000) Am. J. Physiol. 279:[…]-[…], which are herein incorporated by reference. Animals were euthanized by CO2-induced asphyxiation, and blood and the pancreas were harvested for measurements. Curcumin (Sigma Chemical, St. Louis, Mo.) was dissolved in dimethyl sulfoxide (DMSO) and administered to each animal by i.v. infusion together with cerulein at a dose of 35 mg/kg/h. Thus, during the 6-hour treatment, each animal received a total of 200 mg/kg (0.5 mmol/kg) of curcumin. Serum amylase and lipase were measured under contract using a Hitachi 707 analyzer (Antech Diagnostics, Irvine Calif.) and methods known in the art. […] Thus, curcumin inhibits […] pancreatitis. An ethanol/CCK-induced pancreatitis model as previously described was used. See Pandol S J, et al. (1999). Specifically, Sprague-Dawley rats (400-500 g; Harlan, Madison, Wis.) were given an intragastric infusion of ethanol-containing or control diet for 6 weeks followed by 6-hour infusion of a low dose (3000 pmol/kg/h) CCK-8 (Peninsula Laboratories, Belmont, Calif.). […] CCK-8 causes pancreatitis in both rats and mice by stimulating the activation of the inflammatory signals, i.e. NF-κB and AP-1, in the pancreatic acinar cell. Animals were euthanized by CO2-induced asphyxiation, and blood and the pancreas were harvested for measurements. Curcumin (Sigma Chemical, St. Louis, Mo.) was dissolved in dimethyl sulfoxide (DMSO) and administered to each animal by i.v. infusion together with CCK-8 at a dose of 35 mg/kg/h. Thus, during the 6-hour treatment, each animal received a total of 200 mg/kg (c. 0.5 mmol/kg) of curcumin. Serum amylase and lipase were measured under contract using a Hitachi 707 analyzer (Antech Diagnostics, Irvine Calif.) and methods known in the art. […] Thus, curcumin inhibits […] pancreatitis.

caspase-3 = test: Caspase-3-like (DEVDase) activity in pancreatic tissue lysates; format: in vivo, rat; conditions: for Caspase-3-like (DEVDase) activity versus pancreatitis without curcumin: p<0.05; for augmentation of the increase in DEVDase activity: rat pancreas
Procedure: […] activity was measured by methods known in the art. See Gukovskaya A S, et al. (2002). Briefly, samples of pancreatic tissue were rinsed with ice-cold PBS and homogenized in a lysis buffer comprising 150 mM NaCl, 50 mM Tris-HCL (pH 7.5), 0.5% Igepal CA-630 (Sigma, St. Louis, Mo.), and 0.5 mM EDTA. Lysates were centrifuged for 10 minutes at 16,000× g and the supernatants were collected. Caspase activity was determined at 37° C. in a buffer comprising 25 mM HEPES (pH 7.5), 10% sucrose, 0.1% CHAPS, 10 mM DTT and […] Ac-DEVD-AMC, a specific fluorogenic substrate for measurement of caspase-3-like activity (AnaSpec, San Jose, Calif.). Cleavage of the substrate releases AMC that emits a fluorescent signal with excitation at 380 nm and emission at 440 nm. Fluorescence was calibrated using a standard curve for AMC. The data were expressed as mol AMC/min/mg protein.

[2] = tested on: neutrophil infiltration of pancreatic tissue; test: Neutrophil infiltration assay of pancreatic tissue; format: in vivo; conditions: rat
Procedure: Neutrophil infiltration of pancreatic tissue was examined using methods known in the art. See Gukovskaya A S, et al. (1997); Gukovskaya A S, et al. (2002); Pandol S J, et al. (1999); Sandoval D, et al. (1996); and Vaquero E, et al. (2001). The pancreas was cut into about 2 to about 3 mm pieces and fixed in 4% paraformaldehyde for 2 hours. The tissue was then frozen in liquid nitrogen. 8-μm-thick serial cryostat sections of pancreatic tissue from control samples and test samples from Examples 1 and 2 were cut and mounted on glass slides. The slides were placed in phosphate buffered saline (PBS) for 5 minutes. This was repeated twice. Then the slides were transferred into blocking buffer (PBS containing 5% (wt/vol) goat serum, 0.5% bovine serum albumin (wt/vol) and 0.1% gelatin(wt/vol) for 1 hour at room temperature. Then the slides incubated with FITC-conjugated rabbit anti-rat neutrophil antibody (Accurate, Westbury, N.Y.) (diluted 1:120 in the blocking buffer) for 3 hours at room temperature. The slides were the transferred into the blocking buffer, incubated for 5 minutes, and repeated 4 times. Finally, coverslips were mounted over the tissue samples on the slide with the addition of anti-fading medium. The number of infiltrating neutrophils was obtained by counting the neutrophils at 40× magnification in an average of 50 fields covering at least about 1,000 acinar cells. For each sample, neutrophil numbers were expressed as a percentage of acinar cells.

Question: What does the source list for COc1cc(/C=C/C(=O)CC(=O)/C=C/c2ccc(O)c(OC)c2)ccc1O [curcumin]?
Answer: inhibition of the increase in serum amylase and lipase ([1]; cerulein pancreatitis): approximately 50%; serum amylase versus pancreatitis without curcumin ([1]; cerulein pancreatitis, p<0.05): significantly inhibited; also recorded: significantly lower; serum lipase versus pancreatitis without curcumin ([1]; cerulein pancreatitis, p<0.05): significantly inhibited; also recorded: significantly lower; inhibition of the increase in serum amylase and lipase ([1]; ethanol/CCK pancreatitis): approximately 50%; serum amylase and lipase versus pancreatitis without curcumin ([1]; ethanol/CCK pancreatitis, p<0.05): significantly inhibited; also recorded: significantly lower; Caspase-3-like (DEVDase) activity versus pancreatitis without curcumin (caspase-3; EtOH+CCK pancreatitis): significantly higher; augmentation of the increase in DEVDase activity (caspase-3; EtOH+CCK pancreatitis): greater than 2 fold; Caspase-3-like (DEVDase) activity versus pancreatitis without curcumin (caspase-3; cerulein pancreatitis): significantly higher; augmentation of the increase in DEVDase activity (caspase-3; cerulein pancreatitis): greater than 2 fold; inhibition of neutrophil infiltration in the pancreas ([2]; cerulein pancreatitis): greater than 50%; neutrophil infiltration versus pancreatitis without curcumin ([2]; cerulein pancreatitis): significantly lower; also recorded: significantly inhibited; inhibition of neutrophil infiltration in the pancreas ([2]; ethanol/CCK pancreatitis): greater than 50%; neutrophil infiltration versus pancreatitis without curcumin ([2]; ethanol/CCK pancreatitis): significantly lower; also recorded: significantly inhibited
